Reference: patent publication EP0488424B1, “Recombinant DNA sequences encoding feedback inhibition released enzymes, plasmids comprising the recombinant DNA sequences, transformed microorganisms useful in the production of aromatic amino acids, and a process for preparing aromatic amino acids by fermentation” (priority 1990, dated 1992)

Assays:
Type in all cases: biochemical
[1] = target: T1, Escherichia coli DS encoded by aroG, variant aroG15, 146 Asp → Asn (pTS-aroG15) (Escherichia coli, UniProt P0AB91, D146N); experiment: DS enzyme activity in the presence of L-phenylalanine (crude enzyme solution); settings: crude enzyme of AJ 12563 (AB3257/pTS-aroG15); Fig. 3
T1 construct: cloning the natural DS gene of Escherichia coli; made in house; host or cells: Escherichia coli AB3257 (strain AJ 12563), crude enzyme solution
From the text: (§1) The above plasmids, bearing either mutant aroF (pTS-aroF15 and pTS-aroF33) or mutant aroG (pTS-aroG4, pTS-aroG8, pTS-aroG15, pTS-aroG17, pTS-aroG29 and pTS-aroG40), were used to transform Escherichia coli AB3257 strain having no DS activity. The respective transformants were named AJ 12598 (AB3257/pTS-aroF15), AJ 12599 (AB3257/pTS-aroF33), AJ 12562 (AB3257/pTS-aroG4), AJ 12600 (AB3257/pTS-aroG8), AJ 12563 (AB3257/pTS-aroG15), AJ 12601 (AB3257/pTS-aroG17), AJ 12602 (AB3257/pTS-aroG29) and AJ 12603 (AB3257/pTS-aroG40), respectively. Among them, AJ 12563 and AJ 12603 were deposited as representative strains in the Fermentation Research Institute of the Agency of Industrial Science & Technology of Japan, under the deposit numbers Escherichia coli FERM BP-3567 and FERM BP-3568, respectively. For the purpose of comparison, plasmids hearing wild type genes were also used to transform the E. coli AB3257 strain.
(§2) Each of these strains were cultured for 24 hours in a known L-phenylalanine-producing medium [Sugimoto, S. et al., J. Biotechnol., 5, 237 (1988)]. From the culture cells, the crude enzyme solution was prepared by ultrasonic homogenization. The enzyme activity of DS was determined in a conventional manner [Gollub, E. et al., Methods Enzymol., 17, 349], in the presence of L-tyrosine in the case of aroF, and in the presence of L-phenylalanine in the case of aroG.

[2] = target: T2, Escherichia coli DS encoded by aroG, variant aroG8, 202 Ala → Thr (pTS-aroG8) (Escherichia coli, UniProt P0AB91, A202T); experiment: as above; settings: crude enzyme of AJ 12600 (AB3257/pTS-aroG8); Fig. 3
T2 construct: cloning the natural DS gene of Escherichia coli; made in house; host or cells: Escherichia coli AB3257 (strain AJ 12600), crude enzyme solution
From the text: as §1, §2

[3] = target: T3, Escherichia coli DS encoded by aroG, variant aroG17, 147 Met → Ile, 332 Glu → Lys (pTS-aroG17) (Escherichia coli, UniProt P0AB91, E332K/M147I); experiment: as above; settings: crude enzyme of AJ 12601 (AB3257/pTS-aroG17); Fig. 3
T3 construct: cloning the natural DS gene of Escherichia coli; made in house; host or cells: Escherichia coli AB3257 (strain AJ 12601), crude enzyme solution
From the text: as §1, §2

[4] = target: T4, Escherichia coli DS encoded by aroG, variant aroG29, 147 Met → Ile (pTS-aroG29) (Escherichia coli, UniProt P0AB91, M147I); experiment: as above; settings: crude enzyme of AJ 12602 (AB3257/pTS-aroG29); Fig. 3
T4 construct: cloning the natural DS gene of Escherichia coli; made in house; host or cells: Escherichia coli AB3257 (strain AJ 12602), crude enzyme solution
From the text: as §1, §2

[5] = target: T5, Escherichia coli DS encoded by aroG, variant aroG40, 157 Met → Ile, 219 Ala → Thr (pTS-aroG40) (Escherichia coli, UniProt P0AB91, A219T/M157I); experiment: as above; settings: crude enzyme of AJ 12603 (AB3257/pTS-aroG40); Fig. 3
T5 construct: cloning the natural DS gene of Escherichia coli; made in house; host or cells: Escherichia coli AB3257 (strain AJ 12603), crude enzyme solution
From the text: as §1, §2

[6] = target: T6, Escherichia coli 3-deoxy-D-arabinoheptulonic acid-7-phosphate synthase (DS) encoded by aroG, wild type (pTS-aroG) (Escherichia coli, UniProt P0AB91); experiment: as above; settings: crude enzyme of AB3257/pTS-aroG; concentration not stated in text (Fig. 3)
T6 construct: cloning the natural DS gene of Escherichia coli; made in house; host or cells: Escherichia coli AB3257 (no DS activity), crude enzyme solution
From the text: as §1, §2

[7] = target: T7, Escherichia coli DS encoded by aroG, variant aroG4, 150 Pro → Leu (pTS-aroG4, strain AJ 12562) (Escherichia coli, UniProt P0AB91, P150L); experiment: as above; settings: crude enzyme of AJ 12562 (AB3257/pTS-aroG4); Fig. 3
T7 construct: cloning the natural DS gene of Escherichia coli; made in house; host or cells: Escherichia coli AB3257 (strain AJ 12562), crude enzyme solution
From the text: as §1, §2

[8] = target: T8, Escherichia coli K-12 chorismate mutase-prephenate dehydratase (CM-PD), variant with amino acid residues downstream from the 330 serine residue deleted (pPHATer (Escherichia coli, UniProt P0A9J8)); experiment: PD enzyme activity in the presence of L-phenylalanine (crude enzyme); settings: crude enzyme of W3110 (tyrA)/(pPHATerm); concentration not given
T8 construct: made in house; host or cells: Escherichia coli W3110 (tyrA), crude enzyme
Description: (§3) Escherichia coli K-12 W3110 (tyrA)/(pPHAB) strain was cultured at 37°C for 15 hours in L medium and the cells were collected by centrifugation. Then, the cells were washed twice with physiological saline, and suspended in 250 mM Tris-hydrochloride buffer (pH 7.5) containing 0.5 mM dithiothreitol under ice cooling. By ultrasonication (20 KHz) for 30 seconds four times, the crude enzyme solution was prepared.
(§4) The PD enzyme activity was determined in a conventional manner [Cotton, R.G.H. and Gibson, F., Meth. in Enzymol., 17, 564 (1970)]. Using the crude enzyme, the enzymatic reaction was carried out at 37°C for 10 minutes in the presence of 50 mM Tris-hydrochloride buffer (pH 8.2) containing 1 mM barium prephenate and 0.5 mM L-tyrosine. Aqueous sodium hydroxide (1 N) was added to terminate the reaction, and the formed phenylpyruvic acid was measured at an extinction wavelength of 320 nm.
(§5) Quantitative determination of protein was made using the Protein Assay Kit (manufactured by Bio Rad Co.), according to the protocol of the manufacturer.
(§6) By using the same method above, the PD enzyme activities of Escherichia coli W3110 (tyrA)/(pPHAD) and Escherichia coli W3110 (tyrA)/(pPHATerm) were determined.

[9] = target: T9, Escherichia coli K-12 chorismate mutase-prephenate dehydratase (CM-PD), variant with 330 serine residue substituted with an aspartic acid (pPHAD) (Escherichia coli, UniProt P0A9J8, S330D); experiment: as above; settings: crude enzyme of W3110 (tyrA)/(pPHAD); concentration not given
T9 construct: the natural CM-PD gene of Escherichia coli is cloned; made in house; host or cells: Escherichia coli W3110 (tyrA), crude enzyme
Description: as §3, §4, §5, §6

[10] = target: T10, Escherichia coli K-12 chorismate mutase-prephenate dehydratase (CM-PD), variant with 330 serine residue substituted with a proline residue (pPHAB) (Escherichia coli, UniProt P0A9J8, S330P); experiment: as above; settings: 5 mM L-phenylalanine; 1 mM barium prephenate, 0.5 mM L-tyrosine, pH 8.2, 37°C, 10 minutes; Fig. 4
T10 construct: the natural CM-PD gene of Escherichia coli is cloned; made in house; host or cells: Escherichia coli K-12 W3110 (tyrA), crude enzyme solution
Description: as §3, §4, §5

[11] = target: T11, Escherichia coli chorismate mutase-prephenate dehydratase (CM-PD), wild type (Escherichia coli, UniProt P0A9J8); experiment: as above; settings: 0.5 mM L-phenylalanine; 1 mM barium prephenate, 0.5 mM L-tyrosine, pH 8.2, 37°C, 10 minutes; Fig. 4
T11 construct: the natural CM-PD gene of Escherichia coli is cloned; made in house
Description: as §3, §4, §5

[12] = target: T12, Escherichia coli DS encoded by aroF, variant aroF15, 147 Asp → Asn (pTS-aroF15) (Escherichia coli, UniProt P00888, D147N); experiment: DS enzyme activity in the presence of L-tyrosine (crude enzyme solution); settings: crude enzyme of AJ 12598 (AB3257/pTS-aroF15); concentration not stated in text (Fig. 2)
T12 construct: cloning the natural DS gene of Escherichia coli; made in house; host or cells: Escherichia coli AB3257 (strain AJ 12598), crude enzyme solution
From the text: as §1, §2

[13] = target: T13, Escherichia coli 3-deoxy-D-arabinoheptulonic acid-7-phosphate synthase (DS) encoded by aroF, wild type (pTS-aroF) (Escherichia coli, UniProt P00888); experiment: as above; settings: crude enzyme of AB3257/pTS-aroF; concentration not stated in text (Fig. 2)
T13 construct: cloning the natural DS gene of Escherichia coli; made in house; host or cells: Escherichia coli AB3257 (aroF, aroG, aroH deleted), crude enzyme solution
From the text: as §1, §2

[14] = target: T14, Escherichia coli DS encoded by aroF, variant aroF33, 181 Ser → Phe (pTS-aroF33) (Escherichia coli, UniProt P00888, S181F); experiment: as above; settings: crude enzyme of AJ 12599 (AB3257/pTS-aroF33); concentration not stated in text (Fig. 2)
T14 construct: cloning the natural DS gene of Escherichia coli; made in house; host or cells: Escherichia coli AB3257 (strain AJ 12599), crude enzyme solution
From the text: as §1, §2

Row | Compound | inhibition by L-phenylalanine of DS enzyme activity [1] | inhibition by L-phenylalanine of DS enzyme activity [2] | inhibition by L-phenylalanine of DS enzyme activity [3] | inhibition by L-phenylalanine of DS enzyme activity [4] | inhibition by L-phenylalanine of DS enzyme activity [5] | inhibition by L-phenylalanine of DS enzyme activity [6] | DS enzyme activity as a function of L-phenylalanine concentration [7] | inhibition by L-phenylalanine of DS enzyme activity [7] | feedback inhibition by L-phenylalanine of PD enzyme activity [8] | feedback inhibition by L-phenylalanine of PD enzyme activity [9] | inhibition by L-phenylalanine of prephenate dehydratase activity [10] | inhibition by L-phenylalanine of prephenate dehydratase activity [11] | inhibition by L-tyrosine of DS enzyme activity [12] | inhibition by L-tyrosine of DS enzyme activity [13] | inhibition by L-tyrosine of DS enzyme activity [14]
1 | N[C@@H](Cc1ccccc1)C(=O)O [L-phenylalanine] | feedback inhibition by L-phenylalanine is released | feedback inhibition by L-phenylalanine is released | feedback inhibition by L-phenylalanine is released | feedback inhibition by L-phenylalanine is released | feedback inhibition by L-phenylalanine is released | strongly inhibited | increases as the concentration of L-phenylalanine increases | releases feedback inhibition | released from feedback inhibition | released from feedback inhibition | almost no inhibition | strongly inhibited |  |  | 
2 | N[C@@H](Cc1ccc(O)cc1)C(=O)O [L-tyrosine] |  |  |  |  |  |  |  |  |  |  |  |  | released from feedback inhibition | strongly inhibited | released from feedback inhibition
